According to patent publication US20240287037A1, “CYCLOALKYL COMPOUNDS AND PHARMACEUTICAL COMPOSITIONS THAT MODULATE IKZF2” (Plexium, Inc., priority 2021, published 2024):
Where two headings read alike, the source gives them in different places.

Experiments:
IKZF2 (Helios) = IKZF2 (Helios) (Homo sapiens (Human), UniProt Q96SW2+Q9UKS7); experiment: IKZF2 reporter degradation assay (HEK 293T IKZF2-mNeonGreen reporter cell line); assay type: cell-based; conditions: 24 hour incubation; for inhibition at 1 µM: HEK-293T, 24 h
Description: (§1) Polycistronic plasmids were constructed for the mammalian expression of fluorescent reporter fusions of human transcription factors IKZF1 (Ikaros), IKZF2 (Helios), and IKZF3 (Aiolos). The respective protein sequences had their C-terminal end joined to a GGGGS linker repeated three times followed by mNeonGreen, P2A sequence, and mScarlet. The DNA sequences of the open reading frames are as follows:
(§2) IKZF1, IKZF2, and IKZF3 constructs were cloned into the UCOE Hygromycin expression vectors (Millipore Sigma). Reporter constructs were transfected using cationic lipid reagents into adherent HEK 293T cells and stable integrants were selected by treatment with 200 μg/mL hygromycin B. Clonal populations were obtained from the population of stable integrants either by limiting dilution or fluorescence activated cell sorting.
(§3) The clonal stable cell lines were maintained under constant 200 μg/mL hygromycin B selection while being passaged for use in the degradation assays. […] The fluorescence intensity of the IKZF1/2/3-mNeonGreen (FITC channel) and mScarlet (PE channel) reporters were routinely analyzed by flow cytometry to confirm consistent expression levels between experiments.
(§4) The IKZF1/IKZF2/IKZF3 degradation assays were carried out by harvesting the HEK 293T reporter cell lines and resuspending the cells in media formulated for reduced background fluorescence (FluoroBrite; Thermo Fisher). The respective cell lines were seeded at a density of 4000 cells/well into black-walled 384-well optical grade assay tissue culture plates. The cells were incubated overnight at 37° C. to allow for attachment to the assay plate. Dilutions of the compounds were prepared in DMSO from 10 mM compound stocks. The assay plates were treated with appropriate concentrations of the compounds by dispensing the DMSO dilutions in quadruplicate wells with an upper limit of 0.5% final DMSO.
(§5) After 24 hour incubation with the compounds, the assay plates were imaged on an ImageXpress Pico microscopy system (cells maintained at 37° C. during imaging) to obtain the fluorescent readouts. The assay plates were imaged in the FITC and Tetramethylrhodamine (TRITC) channels to obtain the mNeonGreen fluorescence intensity (reporter degradation data) and mScarlet fluorescence intensity (for cell segmentation). 293T-IKZF1 and 293T-IKZF3 reporter cell lines were imaged with exposures of 500 milliseconds (ms) for both FITC and TRITC channels, while the 293T-IKZF2 reporter cell line was imaged with exposures of 1000 ms for FITC and 1250 ms for TRITC. The resulting data was analyzed with Cell Reporter Xpress software using the 2-channel cell scoring analysis with a “percent positive” readout. The TRITC channel was selected for the “nuclei” segmentation with a threshold of 20 while the FITC channel was selected for the “Marker 1” segmentation and a threshold of 100 for the IKZF and IKZF3 reporter lines. […] The minimum segmentation width was set to 6 micrometers and the maximum segmentation width was set to 15 micrometers for all cell lines. The DC50 calculations were determined by regression to best fit four-parameter logistic curves using GraphPad Prism.

[1] = biological target: human E3 ligase component cereblon (CRBN) (Homo sapiens (Human), UniProt Q96SW2); experiment: Cereblon (CRBN) target engagement, NanoBRET TE Intracellular E3 Ligase Assay in transfected HEK-293T cells
Method: HEK-293T cells were harvested ca. 75% confluent with trypsin and plated (500,000 cells/well) in a 6-well tissue culture plate in 2 mL of Dulbecco's Modified Eagle Medium (DMEM)^+10% Fetal Bovine Serum (FBS) and incubated overnight at 37° C.
The NanoLue-CRBN fusion vector (Nluc-CRBN; Promega) contains the coding region of human E3 ligase component cereblon (CRBN) fused to the C-terminus of the NanoLuc luciferase coding region. A mixture of 10 ng Nluc-CRBN and 990 ng DDB1 Expression Vector (Promega) was added to 125 μL Opti-Minimum Essential Medium (Opti-MEM™; Thermo Fisher) along with 2 μL P3000 reagent (Thermo Fisher) in a 1.5 mL epppendorf tube. This solution was added to Lipofectamine 3000 transfection reagent (5 μL; Thermo Fisher) in Opti-MEM (125 μL), mixed well, and incubated for 15 minutes at room temperature. The transfection mixture was added dropwise to cells and incubated overnight at 37° C., 5% CO2. Following transfection, cells were washed once with PBS, and trypsin (250 μL) was added and incubated 30-45 see to dislodge cells. Complete media (2 mL) was added to resuspend cells to form a single cell suspension. Cells were centrifuged at 320×g for 5 min at room temperature, the supernatant was removed, and the cell pellet resuspended in Opti-MEM (3 mL; wash step repeated ×2). After final resuspension in 5 mL Opti-MEM, cells were counted and resuspended at 200,000 cells/mL in Opti-MEM.
Cereblon target engagement was monitored by Bioluminescence Resonance Energy Transfer (BRET) in transfected HEK-293T cells using the NanoBRET TE Intracellular E3 Ligase Assay (Promega). Briefly, 384-well plates (white opaque plates, Corning 3574, low binding surface) were seeded with transfected HEK-293T cells (38 μl/well). 2 μL of 10 μM CRBN tracer (diluted 1:5 in Tracer Dilution Buffer) was added to each well. Plates were centrifuged at 320×g for 1 min at room temperature. […] Plates were shaken for 2 minutes on a microplate shaker to mix compounds. Plates were centrifuged at 320×g for 1 min at room temperature, and subsequently incubated for 2 hours at 37° C.
After incubation, plates were allowed to cool to room temperature for 15 minutes. 20 μL of 3X Complete NanoBRET™ Nano-Glo® Substrate plus Inhibitor Solution (Promega, 1:166 Substrate and 1:500 dilution of Extracellular NanoLuc® Inhibitor diluted in Opti-MEM) were added to each well, Plates were incubated with shaking at room temperature for 3 minutes covered with foil. Plates were read on a CLARIOstar microplate reader (BMG LabTech), measuring at 450 nm (donor emission) and 610 nm (acceptor emission). The IC50 values were determined by regression to best fit four-parameter logistic curves using GraphPad Prism.

IKZF1 (Ikaros) = IKZF1 (Ikaros) (Homo sapiens (Human), UniProt Q13422+Q96SW2); experiment: IKZF1 reporter degradation assay (HEK 293T IKZF1-mNeonGreen reporter cell line); assay type: cell-based; conditions: HEK 293T reporter cells, 24 hour incubation
Description: as §1, §2, §3, §4, §5

IKZF3 (Aiolos) = IKZF3 (Aiolos) (Homo sapiens (Human), UniProt Q96SW2+Q9UKT9); experiment: IKZF3 reporter degradation assay (HEK 293T IKZF3-mNeonGreen reporter cell line); assay type: cell-based; conditions: HEK 293T reporter cells, 24 hour incubation
Description: as §1, §2, §3, §4, §5

[2] = Table 3, HEK 293T reporter cells
[3] = second (untitled) table after Table 3
[4] = Table 3, 2 hours at 37° C., read-out: CRBN Binding EC50
[5] = second (untitled) table after Table 3, read-out: CRBN Binding EC50

Chain of IKZF1 (Ikaros) (Q13422 whole entry): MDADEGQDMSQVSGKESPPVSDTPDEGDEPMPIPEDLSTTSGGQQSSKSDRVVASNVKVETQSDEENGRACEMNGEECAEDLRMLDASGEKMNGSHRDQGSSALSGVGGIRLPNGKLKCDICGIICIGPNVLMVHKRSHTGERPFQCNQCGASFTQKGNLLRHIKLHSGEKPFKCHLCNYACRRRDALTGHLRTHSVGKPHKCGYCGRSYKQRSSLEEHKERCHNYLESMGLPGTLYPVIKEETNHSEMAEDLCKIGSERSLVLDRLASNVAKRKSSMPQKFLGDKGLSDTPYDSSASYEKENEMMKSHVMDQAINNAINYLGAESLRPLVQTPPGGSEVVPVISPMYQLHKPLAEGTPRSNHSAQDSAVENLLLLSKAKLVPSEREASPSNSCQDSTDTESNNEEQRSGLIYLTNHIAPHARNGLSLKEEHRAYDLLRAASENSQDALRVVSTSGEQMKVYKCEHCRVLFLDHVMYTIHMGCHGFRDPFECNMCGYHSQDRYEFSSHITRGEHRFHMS
Chain of IKZF1 (Ikaros) (Q96SW2 whole entry): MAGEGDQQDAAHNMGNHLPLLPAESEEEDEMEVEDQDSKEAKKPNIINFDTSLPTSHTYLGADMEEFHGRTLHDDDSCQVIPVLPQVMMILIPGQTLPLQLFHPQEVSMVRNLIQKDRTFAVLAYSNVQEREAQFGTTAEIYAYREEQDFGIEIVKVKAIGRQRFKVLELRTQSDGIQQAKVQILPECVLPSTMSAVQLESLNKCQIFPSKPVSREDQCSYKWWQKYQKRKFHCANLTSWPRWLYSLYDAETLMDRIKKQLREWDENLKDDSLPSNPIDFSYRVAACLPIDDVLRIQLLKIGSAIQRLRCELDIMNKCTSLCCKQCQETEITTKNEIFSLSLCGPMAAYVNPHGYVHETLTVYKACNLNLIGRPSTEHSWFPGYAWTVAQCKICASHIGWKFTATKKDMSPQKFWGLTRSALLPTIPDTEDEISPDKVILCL
Chain of IKZF1 (Ikaros) (Q16531 whole entry partner): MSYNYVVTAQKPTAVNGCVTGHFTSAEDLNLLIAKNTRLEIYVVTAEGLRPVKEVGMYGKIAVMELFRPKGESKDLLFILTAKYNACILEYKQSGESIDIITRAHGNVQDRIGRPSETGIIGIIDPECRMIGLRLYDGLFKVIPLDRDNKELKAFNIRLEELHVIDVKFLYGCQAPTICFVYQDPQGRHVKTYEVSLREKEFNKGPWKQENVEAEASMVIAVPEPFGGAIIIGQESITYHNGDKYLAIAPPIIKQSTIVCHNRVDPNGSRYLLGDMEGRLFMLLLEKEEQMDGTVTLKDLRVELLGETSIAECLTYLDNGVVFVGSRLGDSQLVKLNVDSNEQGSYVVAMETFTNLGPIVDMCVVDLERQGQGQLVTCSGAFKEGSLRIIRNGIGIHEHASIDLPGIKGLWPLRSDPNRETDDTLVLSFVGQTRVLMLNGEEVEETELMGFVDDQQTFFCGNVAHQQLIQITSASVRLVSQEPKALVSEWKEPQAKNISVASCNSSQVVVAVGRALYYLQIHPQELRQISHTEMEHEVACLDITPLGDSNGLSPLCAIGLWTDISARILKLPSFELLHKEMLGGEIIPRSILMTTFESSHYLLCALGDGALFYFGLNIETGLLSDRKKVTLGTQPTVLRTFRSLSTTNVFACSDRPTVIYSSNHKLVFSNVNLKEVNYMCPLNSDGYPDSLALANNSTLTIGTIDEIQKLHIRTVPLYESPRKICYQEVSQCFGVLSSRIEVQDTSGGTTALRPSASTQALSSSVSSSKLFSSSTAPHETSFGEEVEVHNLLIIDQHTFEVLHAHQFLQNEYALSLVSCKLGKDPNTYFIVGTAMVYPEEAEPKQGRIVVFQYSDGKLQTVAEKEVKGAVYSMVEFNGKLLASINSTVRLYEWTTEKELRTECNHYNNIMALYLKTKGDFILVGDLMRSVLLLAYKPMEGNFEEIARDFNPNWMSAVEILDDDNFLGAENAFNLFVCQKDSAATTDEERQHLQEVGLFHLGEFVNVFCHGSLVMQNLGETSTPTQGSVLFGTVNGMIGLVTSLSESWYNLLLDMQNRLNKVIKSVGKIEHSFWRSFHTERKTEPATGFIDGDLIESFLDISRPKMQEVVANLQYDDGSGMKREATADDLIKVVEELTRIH
Chain of IKZF2 (Helios) (Q9UKS7 whole entry, the tested form may be a part): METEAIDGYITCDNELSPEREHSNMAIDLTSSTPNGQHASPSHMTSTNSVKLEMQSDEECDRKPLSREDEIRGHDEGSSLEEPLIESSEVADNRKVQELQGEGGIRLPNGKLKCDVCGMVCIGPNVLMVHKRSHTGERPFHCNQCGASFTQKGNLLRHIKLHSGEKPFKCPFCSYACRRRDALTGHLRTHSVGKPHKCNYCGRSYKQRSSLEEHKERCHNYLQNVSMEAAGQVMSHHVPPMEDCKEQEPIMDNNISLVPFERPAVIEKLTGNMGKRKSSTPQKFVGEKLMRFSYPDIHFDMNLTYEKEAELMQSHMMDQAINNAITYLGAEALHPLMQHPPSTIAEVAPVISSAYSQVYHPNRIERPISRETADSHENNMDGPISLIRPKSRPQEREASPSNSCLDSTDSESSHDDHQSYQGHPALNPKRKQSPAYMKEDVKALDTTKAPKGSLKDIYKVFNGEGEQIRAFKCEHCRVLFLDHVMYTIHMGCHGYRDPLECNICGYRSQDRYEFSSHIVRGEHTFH
Chain of IKZF2 (Helios) (Q96SW2 whole entry, the tested form may be a part): as the sequence (Q96SW2 whole entry) above
Chain of IKZF2 (Helios) (Q16531 whole entry partner, the tested form may be a part): as the sequence (Q16531 whole entry partner) above
Chain of human E3 ligase component cereblon (CRBN) (Q96SW2 whole entry): as the sequence (Q96SW2 whole entry) above
Chain of human E3 ligase component cereblon (CRBN) (Q16531 whole entry partner): as the sequence (Q16531 whole entry partner) above
Chain of IKZF3 (Aiolos) (Q9UKT9 whole entry): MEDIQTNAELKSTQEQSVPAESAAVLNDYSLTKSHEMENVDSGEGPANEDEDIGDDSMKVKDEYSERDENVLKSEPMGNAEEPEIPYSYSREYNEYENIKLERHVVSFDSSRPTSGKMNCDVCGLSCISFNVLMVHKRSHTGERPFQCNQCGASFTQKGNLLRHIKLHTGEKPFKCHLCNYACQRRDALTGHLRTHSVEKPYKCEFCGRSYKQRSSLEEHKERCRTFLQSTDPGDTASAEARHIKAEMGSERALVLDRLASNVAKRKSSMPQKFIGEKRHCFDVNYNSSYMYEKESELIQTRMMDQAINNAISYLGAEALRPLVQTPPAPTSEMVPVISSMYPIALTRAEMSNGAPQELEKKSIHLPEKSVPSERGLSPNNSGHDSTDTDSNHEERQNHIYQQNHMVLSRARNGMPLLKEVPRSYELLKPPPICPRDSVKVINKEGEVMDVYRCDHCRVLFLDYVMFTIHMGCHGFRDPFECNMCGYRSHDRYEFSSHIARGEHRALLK
Chain of IKZF3 (Aiolos) (Q96SW2 whole entry): as the sequence (Q96SW2 whole entry) above
Chain of IKZF3 (Aiolos) (Q16531 whole entry partner): as the sequence (Q16531 whole entry partner) above

| SMILES | DC50 (IKZF2 (Helios); HEK 293T reporter cells) [nM] | inhibition at 1 µM (IKZF2 (Helios); [2]) [%] | inhibition at 1 µM (IKZF2 (Helios); [3]) [%] | EC50 [1, 4] [nM] | EC50 [1, 5] [nM] | DC50 (IKZF1 (Ikaros)) [nM] | DC50 (IKZF3 (Aiolos)) [nM] | IKZF2% Degradation @ 1 μM (IKZF2 (Helios); [2]) [%] | IKZF2% Degradation @ 1 μM (IKZF2 (Helios); [3]) [%] |
| --- | --- | --- | --- | --- | --- | --- | --- | --- | --- |
| O=C1CCC(N2Cc3cc(O[C@H]4CCCC[C@@H]4N4CC(C5CCCCC5)C4)ccc3C2=O)C(=O)N1 (stereo partly drawn) [Compound 1, 3-(5-(((1S,2S)-2-(3-cyclohexylazetidin-1-yl)cyclohexyl)oxy)-1-oxoisoindolin-2-yl)piperidine-2,6-dione] | 4 | 85.1 | 85.1 | 3 | 3 | > 30000 | > 30000 |  |  |
| O=C1CCC(N2Cc3cc(O[C@H]4CCCC[C@@H]4N4CC(C5CCC(F)(F)CC5)C4)ccc3C2=O)C(=O)N1 (stereo partly drawn) [Compound 2, 3-(5-(((1S,2S)-2-(3-(4,4-difluorocyclohexyl)azetidin-1-yl)cyclohexyl)oxy)-1-oxoisoindolin-2-yl)piperidine-2,6-dione] | 3 | 74.6 | 74.6 | 2 | 2 | > 30000 | > 30000 |  |  |
| O=C1CCC(N2Cc3cc(O[C@H]4CCCC[C@@H]4N4CC(C5CC5)C4)ccc3C2=O)C(=O)N1 (stereo partly drawn) [Compound 3, 3-(5-(((1S,2S)-2-(3-cyclopropylazetidin-1-yl)cyclohexyl)oxy)-1-oxoisoindolin-2-yl)piperidine-2,6-dione] | 12 | 67.7 | 67.7 | 9 | 9 | > 30000 | > 30000 |  |  |
| O=C1CCC(N2Cc3cc(O[C@H]4CCCC[C@@H]4N4CC(C5CCC5)C4)ccc3C2=O)C(=O)N1 (stereo partly drawn) [Compound 5, 3-(5-(((1S,2S)-2-(3-cyclobutylazetidin-1-yl)cyclohexyl)oxy)-1-oxoisoindolin-2-yl)piperidine-2,6-dione] | 4 | 85 | 85 | 9 | 9 | > 30000 | > 30000 |  |  |
| O=C1CCC(N2Cc3cc(O[C@H]4CCCC[C@@H]4N4CC(C5CCCC5)C4)ccc3C2=O)C(=O)N1 (stereo partly drawn) [Compound 6, 3-(5-(((1S,2S)-2-(3-cyclopentylazetidin-1-yl)cyclohexyl)oxy)-1-oxoisoindolin-2-yl)piperidine-2,6-dione] | 3 | 86.3 | 86.3 | 5 | 5 | > 30000 | > 30000 |  |  |
| O=C1CCC(N2Cc3cc(O[C@H]4CCC[C@@H]4N4CC(C5CCC(F)(F)CC5)C4)ccc3C2=O)C(=O)N1 (stereo partly drawn) [Compound 13, 3-(5-(((1S,2S)-2-(3-(4,4-difluorocyclohexyl)azetidin-1-yl)cyclopentyl)oxy)-1-oxoisoindolin-2-yl)piperidine-2,6-dione] | 5 | 75.9 | 75.9 | 5 | 5 | > 30000 | > 30000 |  |  |
| CC(C)OC1CCC(C2CN([C@H]3CCCC[C@@H]3Oc3ccc4c(c3)CN(C3CCC(=O)NC3=O)C4=O)C2)CC1 (stereo partly drawn) [Compound 16, 3-(5-(((1S,2S)-2-(3-((cis)-4-isopropoxycyclohexyl)azetidin-1-yl)cyclohexyl)oxy)-1-oxoisoindolin-2-yl)piperidine-2,6-dione] | 1 | 95.5 | 95.5 | 2 | 2 | > 30000 | > 30000 |  |  |
| CC(C)OC1CCC(C2CN([C@H]3CCCC[C@@H]3Oc3ccc4c(c3)CN(C3CCC(=O)NC3=O)C4=O)C2)CC1 (stereo partly drawn) [Compound 17, 3-(5-(((1S,2S)-2-(3-((trans)-4-isopropoxycyclohexyl)azetidin-1-yl)cyclohexyl)oxy)-1-oxoisoindolin-2-yl)piperidine-2,6-dione] | 1 |  |  | 1 | 1 | > 30000 | > 30000 | 96.7 | 96.7 |
| O=C1CCC(N2Cc3cc(O[C@H]4CCCC[C@@H]4N4CC(C5CC(F)(F)C5)C4)ccc3C2=O)C(=O)N1 (stereo partly drawn) [Compound 18, 3-(5-(((1S,2S)-2-(3-(3,3-difluorocyclobutyl)azetidin-1-yl)cyclohexyl)oxy)-1-oxoisoindolin-2-yl)piperidine-2,6-dione] | 29 | 71.1 | 95.8 | 12 | 12 | > 30000 | > 30000 |  |  |
| CCOC1CCC(C2CN([C@H]3CCCC[C@@H]3Oc3ccc4c(c3)CN(C3CCC(=O)NC3=O)C4=O)C2)CC1 (stereo partly drawn) [Compound 19, 3-(5-(((1S,2S)-2-(3-(4-ethoxycyclohexyl)azetidin-1-yl)cyclohexyl)oxy)-1-oxoisoindolin-2-yl)piperidine-2,6-dione] | 2 | 72.8 | 72.8 | 1 | 1 | > 30000 | > 30000 |  |  |
